Key:
[1] = tested on: a2^12AP (DNA, G4, 2-aminopurine at 12 (replaces A)) GGGGTGTGGGGACAGGGGTGTGGGG; test: 2-aminopurine fluorescence quenching titration; conditions: K+ 25 mM; K-phosphate buffer, pH 7.0, 20 °C; 30 µM DNA; significant quenching only above ligand–DNA ratio 1
[2] = tested on: a2 (DNA, G4) GGGGTGTGGGGACAGGGGTGTGGGG; test: 1H NMR / NOESY titration; conditions: K+ 25 mM; K-phosphate buffer, pH 7.0, 25 °C, 2.0 mM a2; terminal stacking on G1-G11-G15-G25 quartet
[3] = tested on: a2 (DNA, G4) GGGGTGTGGGGACAGGGGTGTGGGG; test: fluorimetric titration (ligand fluorescence quenching); conditions: K+ 25 mM; K-phosphate buffer, pH 7.0, 20 °C; 20 μM ligand
[4] = tested on: a2^14AP (DNA, G4, 2-aminopurine at 14 (replaces A)) GGGGTGTGGGGACAGGGGTGTGGGG; test: 2-aminopurine fluorescence quenching titration; conditions: K+ 25 mM; K-phosphate buffer, pH 7.0, 20 °C; 30 µM DNA; significant quenching only above ligand–DNA ratio 1

Cc1cc2c3c([n+](C)c4ccc(F)cc4c3c1)-c1cc(F)ccc1N2C
binding [1]: yes | binding [2]: yes | Kb [3]: 1.4 ± 0.2 × 10^6 M^-1 | binding [4]: yes

— article PMC8587938 (2021)
